For experiment [1], the system named is red fluorescent protein labeled MiaPaCa-2 cells. The experiment can be described thus: Orthotopic pancreatic cancer model, chemotherapy with or without ultrasound. The experiment is classed as in vivo, Mice. The following applies: no ultrasound treatment. The method, then: Orthotopic pancreatic cancer was inoculated surgically in the pancreatic tail. Mice received a single sub-capsular injection of 1×10^6 red fluorescent protein labeled MiaPaCa-2 cells suspended in 0.125 mL serum free media (DMEM). All procedures were done utilizing a 12× Universal S3B microscope.
Following the primary surgery, high resolution (3456 pixels×2304 pixels) whole body digital images (EOS Digital Rebel, Canon USA, Lake Success, N.Y.) of each mouse were obtained once a week to monitor primary tumor growth and presence of metastases. The red fluorescent protein was visualized with an Illumatool Bright Light System that consisted of a 563 nm excitation filter and a 587 nm emission filter (Model LT-9900, LightTools Research, Encinitas, Calif.). Animals were imaged under nose-cone induced isoflurane general anesthesia. Primary tumor area was quantified using public domain software ImageJ (National Institutes of Health http://rsb.info.nih.gov/ij/).
Animals were randomly assigned to six groups, six animals each: (1) negative control (injection of PBS); (2) GEM at 140 mg/kg (positive control 1); (3) GEN at 20 mg/kg as PTX (positive control 2); (4) GEM+GEN combination treatment; (5) GEN+ultrasound; (6) GEM+nbGEN+ultrasound. […] Nominal ultrasound intensity was 3.4 W/cm^2, which corresponded to a measured MI=0.59. […]

The subject of experiment [2] is MDA MB231 breast cancer cell suspension. The experiment can be described thus: Ultrasound-induced DOX transfer from bubble walls into cells (fluorescence). The settings on record: 0.75 mg/ml Dox/0.5% PEG-PLLA/2% PFP formulation; 3-MHz ultrasound, 2 W/cm^2, 20% duty cycle, 30-s exposure. The experiment is classed as cell-based. An excerpt:
(B) Fluorescence image of the MDA MB231 cell (thick arrow) and bubble (thin arrow) aggregates formed in the capillary during a 150-s sonication (corresponding to a 30-s ultrasound exposure time) by 3-MHz ultrasound at a 2 W/cm^2 nominal power density with a 20% duty cycle, with the focus on the bubbles. Ultrasound was applied directly to the slide through the Aquasonic coupling gel. (C) Fluorescence image of another cell aggregate of the same sample, with focus on the cells.
The elucidation of this problem would allow designing optimal ultrasound protocols. Previous data was re-evaluated. These experiments were performed by sonicating a nanodroplet/cell mixture placed in a plastic capillary (internal diameter 340 μm) of a snake mixer slide.

Each structure is given as a SMILES string.

As to `Nc1ccn([C@@H]2O[C@H](CO)[C@@H](O)C2(F)F)c(=O)n1` [GEM, gemcitabine], the “Ascitis in ultrasound images” value in experiment [1] was “clearly visible”.

With `COc1cccc2c1C(=O)c1c(O)c3c(c(O)c1C2=O)C[C@@](O)(C(=O)CO)C[C@@H]3O[C@H]1C[C@H](N)[C@H](O)[C@H](C)O1` [DOX, doxorubicin], the “Cell fluorescence after sonication (DOX transfer into cells)” value in experiment [2] was “acquired strong fluorescence”.

Source of the values: US20100178305A1, “ULTRASONIC NANOTHERAPY OF SOLID TUMORS WITH BLOCK COPOLYMERS STABILIZED PERFLUOROCARBON NANODROPLETS” (UNIVERSITY OF UTAH RESEARCH FOUNDATION, priority 2008, published 2010).
